Patent US9133104B2 (Chroma Therapeutics Ltd., priority 2005, dated 2015)

Legend:
[1] = molecular target: T1, histone deacetylase activity (HeLa nuclear extract); test: HDAC fluorescent activity assay (Biomol Fluor de Lys), HeLa nuclear extract; assay type: biochemical; conditions: Fluor de Lys substrate, IC50 range
T1 construct: Histone deacetylase activity from crude nuclear extract derived from HeLa cells was used for screening
Summary of the method: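 Crude HeLa nuclear extract (20 mM Hepes, 100 mM KCl, 0.2 mM EDTA, 0.5 mM DTT, 0.2 mM PMSF, 20% glycerol) incubated with acetyl-lysine Fluor de Lys substrate ± inhibitor; developer generates fluorophore. Background-subtracted % of vehicle control; IC50 from eight-point variable-slope sigmoidal fit.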

[2] = tested on: U937 cancer cell line; test: Cell inhibition assay (SRB cell viability), U937; assay type: cell-based; conditions: Homo sapiens, U-937, U937 cells, 72 h, IC50 range
Procedure: (§1) The corresponding cancer cell lines (Hela, U937 and HUT) growing in log phase were harvested and seeded at 1000 cells/well (200 ul final volume) into 96-well tissue culture plates. Following 24 h of cell growth cells were treated with compounds (final concentration of 20 uM). Plates were then re-incubated for a further 72 h before a sulphorhodamine B (SRB) cell viability assay was conducted according to Skehan 1990 J Natl Canc Inst 82, 1107-1112.
(§2) Data were expressed as a percentage inhibition of the control, measured in the absence of inhibitor, as follows:— % inhibition=100−((S^i/S^o)×100) where S^i is the signal in the presence of inhibitor and S^o is the signal in the presence of DMSO. IC50 values were determined by non-linear regression analysis, after fitting the results of eight data points to the equation for sigmoidal dose response with variable slope (% activity against log concentration of compound), using Graphpad Prism software. […] NT=Not tested

[3] = tested on: Hela cancer cell line; test: Cell inhibition assay (SRB cell viability), Hela; assay type: cell-based; conditions: Homo sapiens, HeLa, 72 h, Hela cells, IC50 range
Summary of the method: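 Log-phase Hela, U937 and HUT cells were seeded at 1000 cells/well, grown 24 h, then exposed to compound (20 uM final) for 72 h. Viability was read by sulphorhodamine B staining and expressed as % inhibition relative to DMSO control. IC50 values came from sigmoidal variable-slope fits of eight concentrations.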

[4] = tested on: HUT cancer cell line; test: Cell inhibition assay (SRB cell viability), HUT; assay type: cell-based; conditions: HUT cells, 72 h, IC50 range
Procedure: as §1, §2

IC50 [1] [µM] | IC50 [2] [µM] | IC50 [3] [µM] | IC50 [4] [µM] | SMILES
0.101 to 1 | < 0.33 | > 3.3 | 0.33 to 3.3 | CC(C)C[C@H](NCc1ccc(NC(=O)CCCCCCC(=O)NO)cc1)C(=O)OC1CCCC1 [Compound 85, (S)-2-[4-(7-Hydroxycarbamoyl-heptanoylamino)-benzylamino]-4-methyl-pentanoic acid cyclopentyl ester]
0.101 to 1 | 0.33 to 3.3 | > 3.3 | 0.33 to 3.3 | O=C(CCCCCCC(=O)Nc1ccc(CN[C@@H](Cc2ccccc2)C(=O)OC2CCCC2)cc1)NO [Compound 91, (S)-2-[4-(7-Hydroxycarbamoyl-heptanoylamino)-benzylamino]-3-phenyl-propionic acid cyclopentyl ester]
< 0.1 | < 0.33 | 0.33 to 3.3 | 0.33 to 3.3 | CC(C)C[C@H](NCc1ccc(CNCc2ccc3cc(C(=O)NO)sc3c2)cc1)C(=O)OC1CCCC1 [Compound 122]
< 0.1 | < 0.33 | < 0.33 | < 0.33 | O=C(NO)c1cc2ccc(CNCc3ccc(CN4CCC[C@H]4C(=O)OC4CCCC4)cc3)cc2s1 [Compound 111, (S)-1-(4-{[(2-Hydroxycarbamoyl-benzo[b]thiophen-6-ylmethyl)-amino]-methyl}-benzyl)-pyrrolidine-2-carboxylic acid cyclopentyl ester]
< 0.1 | < 0.33 | 0.33 to 3.3 | 0.33 to 3.3 | O=C(CCCCCCC(=O)Nc1cccc(CCN[C@H](C(=O)OC2CCCC2)c2ccccc2)c1)NO [Compound 71, (S)-{2-[3-(7-Hydroxycarbamoyl-heptanoylamino)-phenyl]-ethylamino}-phenyl-acetic acid cyclopentyl ester]
< 0.1 | < 0.33 | 0.33 to 3.3 | < 0.33 | O=C(CCCCCCC(=O)Nc1cccc(OCCCN[C@H](C(=O)OC2CCCC2)c2ccccc2)c1)NO [Compound 77, (S)-{3-[3-(7-Hydroxycarbamoyl-heptanoylamino)-phenoxy]-propylamino}-phenyl-acetic acid cyclopentyl ester]
> 1 | 0.33 to 3.3 | > 3.3 | > 3.3 | O=C(NO)c1cc2ccc(CNc3cccc(CN[C@H](C(=O)OC4CCCC4)c4ccccc4)c3)cc2s1 [Compound 130, (S)-{3-[(2-Hydroxycarbamoyl-benzo[b]thiophen-6-ylmethyl)-amino]-benzyl-amino}-phenyl-acetic acid cyclopentyl ester]
> 1 | > 3.3 | > 3.3 | > 3.3 | CCOC(=O)[C@H](Cc1ccccc1)NC(=O)C1CCCN1C(=O)CCCCCCC(=O)NO (stereo partly drawn) [Compound 55, (S)-2-{[1-(7-Hydroxycarbamoyl-heptanoyl)-pyrrolidine-2-carbonyl]-amino}-3-phenyl-propionic acid ethyl ester]
0.101 to 1 | 0.33 to 3.3 | > 3.3 | > 3.3 | O=C(Cc1ccc(OCCCC(=O)N[C@@H](Cc2ccccc2)C(=O)OC2CCCC2)cc1)Nc1ccc2sc(C(=O)NO)cc2c1 [Compound 102, (S)-2-(4-{4-[(2-Hydroxycarbamoyl-benzo[b]thiophen-5-ylcarbamoyl)-methyl]-phenoxy}-butyrylamino)-3-phenyl-propionic acid cyclopentyl ester]
> 1 | 0.33 to 3.3 | 0.33 to 3.3 | 0.33 to 3.3 | O=C(CCCCCCC(=O)N1CCc2c([nH]c3ccccc23)C1CN[C@H](C(=O)OC1CCCC1)c1ccccc1)NO (stereo partly drawn) [Compound 42, (S)-{[2-(7-Hydroxycarbamoyl-heptanoyl)-2,3,4,9-tetrahydro-1H-beta-carbolin-1-ylmethyl]-amino}-phenyl-acetic acid cyclopentyl ester]
0.101 to 1 | < 0.33 | 0.33 to 3.3 | 0.33 to 3.3 | O=C(NO)c1cc2ccc(CNCc3ccc(CN[C@H](C(=O)OC4CCCC4)c4ccccc4)cc3)cc2s1 [Compound 124, (S)-(4-{[(2-Hydroxycarbamoyl-benzo[b]thiophen-6-ylmethyl)-amino]-methyl}-benzylamino)-phenyl-acetic acid cyclopentyl ester]
> 1 | 0.33 to 3.3 | > 3.3 | 0.33 to 3.3 | O=C(CCCCCCC(=O)N1Cc2ccccc2C[C@H]1C(=O)N[C@@H](Cc1ccccc1)C(=O)O)NO [Compound 48, (S)-2-{[(S)-2-(7-Hydroxycarbamoyl-heptanoyl)-1,2,3,4-tetrahydro-isoquinoline-3-carbonyl]-amino}-3-phenyl-propionic acid]
< 0.1 | < 0.33 | < 0.33 | < 0.33 | C[C@H](NCc1ccc(CNCc2ccc3cc(C(=O)NO)sc3c2)cc1)C(=O)OC1CCCC1 [Compound 118, (S)-2-(4-{[(2-Hydroxycarbamoyl-benzo[b]thiophen-6-ylmethyl)-amino]-methyl}-benzylamino)-propionic acid cyclopentyl ester]
> 1 | > 3.3 | > 3.3 | > 3.3 | O=C(CCCCCCC(=O)Nc1ccccc1CN[C@H](C(=O)O)c1ccccc1)NO [Compound 41, (S)-[2-(7-Hydroxycarbamoyl-heptanoylamino)-benzylamino]-phenyl-acetic acid]

Second part, the molecule before the results:

SMILES | IC50 [1] [µM] | IC50 [2] [µM] | IC50 [3] [µM] | IC50 [4] [µM]
O=C(CCCCCCC(=O)Nc1ccc(C(=O)N[C@H](C(=O)OC2CCCC2)c2ccccc2)cc1)NO [Compound 17, (S)-[4-(7-Hydroxycarbamoyl-heptanoylamino)-benzoylamino]-phenyl-acetic acid cyclopentyl ester] | 0.101 to 1 | 0.33 to 3.3 | > 3.3 | 0.33 to 3.3
O=C(CCCCCCC(=O)N1Cc2[nH]c3ccccc3c2C[C@@H]1C(=O)N[C@H](C(=O)OC1CCCC1)c1ccccc1)NO [Compound 1, (S)-{[(R)-2-(7-Hydroxycarbamoyl-heptanoyl)-2,3,4,9-tetrahydro-1H-beta-carboline-3-carbonyl]-amino}-phenyl-acetic acid cyclopentyl ester] | 0.101 to 1 | 0.33 to 3.3 | > 3.3 | 0.33 to 3.3
CC(C)(C)OC(=O)[C@@H](NCc1cccc(NC(=O)CCCCCCC(=O)NO)c1)c1ccccc1 [Compound 35, (S)-[3-(7-Hydroxycarbamoyl-heptanoylamino)-benzylamino]-phenyl-acetic acid tert-butyl ester] | 0.101 to 1 | 0.33 to 3.3 | 0.33 to 3.3 | 0.33 to 3.3
O=C(CCCCCCC(=O)N1CCc2c([nH]c3ccccc23)C1C(=O)N[C@H](C(=O)O)c1ccccc1)NO (stereo partly drawn) [Compound 10, (S)-{[2-(7-Hydroxycarbamoyl-heptanoyl)-2,3,4,9-tetrahydro-1H-beta-carboline-1-carbonyl]amino}-phenyl-acetic acid] | < 0.1 | > 3.3 | > 3.3 | > 3.3
O=C(CCCCCCC(=O)Nc1cccc(CN[C@H](C(=O)O)c2ccccc2)c1)NO [Compound 37, (S)-[3-(7-Hydroxycarbamoyl-heptanoylamino)-benzylamino]-phenyl-acetic acid] | 0.101 to 1 | > 3.3 | > 3.3 | > 3.3
COc1ccc2[nH]c3c(c2c1)CCN(C(=O)CCCCCCC(=O)NO)C3C(=O)N[C@H](C(=O)O)c1ccccc1 (stereo partly drawn) [Compound 12, (S)-{[2-(7-Hydroxycarbamoyl-heptanoyl)-6-methoxy-2,3,4,9-tetrahydro-1H-beta-carboline-1-carbonyl]-amino}-phenyl-acetic acid] | 0.101 to 1 | > 3.3 | > 3.3 | > 3.3
O=C(CCCCCCC(=O)N1Cc2[nH]c3ccccc3c2C[C@H]1C(=O)N[C@H](C(=O)OC1CCCC1)c1ccccc1)NO [Compound 3, (S)-{[(S)-2-(7-Hydroxycarbamoyl-heptanoyl)-2,3,4,9-tetrahydro-1H-beta-carboline-3-carbonyl]-amino}-phenyl-acetic acid cyclopentyl ester] | > 1 | 0.33 to 3.3 | > 3.3 | > 3.3
O=C(CCCCCCC(=O)N1Cc2[nH]c3ccccc3c2C[C@@H]1C(=O)N[C@@H](Cc1ccccc1)C(=O)O)NO [Compound 6, (S)-2-{[(R)-2-(7-Hydroxycarbamoyl-heptanoyl)-2,3,4,9-tetrahydro-1H-beta-carboline-3-carbonyl]-amino}-3-phenyl-propionic acid] | < 0.1 | > 3.3 | > 3.3 | > 3.3
O=C(CCCCCCC(=O)N1CCc2c([nH]c3ccccc23)C1C(=O)NC(C(=O)OC1CCCC1)c1ccccc1)NO [Compound 9, (S)-{[2-(7-Hydroxycarbarnoyl-heptanoyl)-2,3,4,9-tetrahydro-1H-beta-carboline-1-carbonyl]-amino}-phenyl-acetic acid cyclopentyl ester] | 0.101 to 1 | 0.33 to 3.3 | 0.33 to 3.3 | 0.33 to 3.3
